Test results taken from patent US20250109127A1, “METHODS OF USE OF PHENOXYPROPYLAMINE COMPOUNDS TO TREAT DEPRESSION” (Minerva Neurosciences, Inc., priority 2013, published 2025).
Several values for one entry are separate records, joined by “and”; a condition that tells them apart may be missing. Identical values can stand only once. Counter-ions that a name gives are not always drawn.

Test system: dopamine release in the rat prefrontal cortex
Assay: Microdialysis: dopamine release in prefrontal cortex after I.P. administration
Format: in vivo
Conditions: for Dopamine release, individual animals / Dopamine release, MEAN: 0.3 mg/kg I.P.; for Dopamine release, individual animals: one column per animal R#11,12,18,23,29,30,17,24, hydrochloride; for Dopamine release, MEAN / DOPAMINE (% of respective basal) MEAN: n = 8; for DOPAMINE (% of respective basal) MEAN: SON-117 group 0.1 mg/kg I.P.
Protocol: The aim of the study was to evaluate, using microdialysis, the effects of an intraperitoneal (I.P.) administration in rats of three different doses of SON-117 on dopamine and its metabolites, serotonin and its metabolite (5-HIAA), and norepinephrine levels in prefrontal cortex.
Thirty-two adult male Wistar rats were used for the whole study (4 groups of eight animals planned for the study, Table 1).
Surgery was performed on rats weighing about 300 g at the beginning of the experiments. Rats were anaesthetized with Ketamine (50 mg/kg) & Xylazine (15 mg/kg) by intramuscular administration. The animals were placed in a stereotaxic apparatus in the flat-skull position at a constant setting of −3.3 mm between ear bars and the incisor bar. The animals were treated with a local anesthesic (xylocaine 1%, Astra Zeneca) and an analgesic (Temgesic, from Schering Plough, 0.05 mg/kg, s.c.). A rostrocaudal midline incision was made with a lancet to expose the dorsal skull surface. The “stereotaxic zero” was defined by the Bregma in accordance with Paxinos and Watson's atlas (1986). A hole was drilled in the skull with a drill and the meninges were pierced with a sterile needle to implant a CMA12 guide cannula which later received the dialysis probe.
Coordinates used for implanting guide cannula in prefrontal cortex from Bregma were anteroposterior 3.7 mm, mediolateral 0.8 mm, and dorsoventral −2 mm (top of the probe was at −5 mm). The guide cannula was fixed to the skull with two stainless steel screws (1.88 mm outside diameter) anchored. An application of dental cement was added. A plastic collar allowed each animal to be tethered to a Swivel assembly of the CMA 120 awake animal system. Following surgery, rats were kept in individual cages and allowed to recover for a minimum of 3-5 days before the experimentation. The rats were handled and put in plastic bowl for 10 min at least every day to habituate the animals to their new environment for the dialysis. An I.P. administration with saline was also performed every day.
Dialysis probes (CMA12/3 mm, membrane, 20 kD cut-off, Carnegie Medicine, Stockholm, Sweden), were carefully washed before inserting into the guide cannula. The wash was performed with the artificial cerebrospinal fluid (aCSF) medium (NaCl 147 mM, KCl 2.7 mM, CaCl2 1.2 mM, MgCl2 0.85 mM) at room temperature. The dialysis system was then equilibrated at 20° C. at a perfusion rate of 1 μl/min with a Carnegie pump (CMA100). All catheters (FEP tubing, internal volume of 1.2 μl/10 cm, and tubing adaptors) used for microdialysis were treated in the same conditions.
The probes duly prepared were inserted into the guide cannula and the CMA120 Swivel assembly secured to the animal using a plastic collar. Flow through the dialysis probe with aCSF was maintained at a rate of 1 μl/min during the whole experimentation. The first four fractions (corresponding to 2 hours) were discarded to avoid the effects of parenchymal disturbance and to ensure that an approximate steady-state level was reached. Fractions were then collected over a period of 8.5 h during which time the animals remained quiet. The dialysates were automatically collected with an autosampler (microfraction collector CMA 140, Carnegie Medicin) and stored at −80° C. until analysis. […] Perfusion was then maintained for 7 hours with aCSF. The dialysates (30 μl) were collected into 300 μl vials, transferred into dry ice and then kept frozen (−80° C.) until analysis. Frozen samples were shipped to a partner for analysis. At the end of the microdialysis study, a PBS with colored ink was perfused through the probe in order to visualize the dialyzed area.
Catecholamine assay: Concentrations of dopamine, DOPAC, HVA, 5-HIAA, 5-HT, and norepinephrin were determined for each sample by HPLC coupled with electrochemical detection.

[1] = T-30 min-T0 (before administration)
[2] = T-1 h 30-T-1 h (before administration)
[3] = T-1 h-T-30 min (before administration)

Cc1nnc(-c2cc3c(OC[C@@H](O)CN4CCC(c5ccc(Cl)c(Cl)c5)CC4)cccc3o2)o1 [SON-117, (S)-1-(4-(3,4-dichlorophenyl)piperidino)-3-(2-(5-methyl-1,3,4-oxadiazol-2-yl)benzo(b)furan-4-yloxy)-2-propanol hydrochloride]
Dopamine release, individual animals (T5 h 30-T6 h): 1190.31 % of respective basal and 66.72 % of respective basal and 285.31 % of respective basal and 29.48 % of respective basal and 247.57 % of respective basal and 111.91 % of respective basal and 52.03 % of respective basal and 128.48 % of respective basal | Dopamine release, MEAN (T5 h-T5 h 30): 263.19 % of respective basal | Dopamine release, individual animals (T5 h-T5 h 30): 611.23 % of respective basal and 37.39 % of respective basal and 1036.44 % of respective basal and 30.12 % of respective basal and 108.05 % of respective basal and 81.56 % of respective basal and 80.36 % of respective basal and 120.37 % of respective basal | Dopamine release, MEAN (T6 h 30-T7 h): 297.55 % of respective basal | Dopamine release, individual animals (T6 h 30-T7 h): 331.87 % of respective basal and 230.42 % of respective basal and 224.57 % of respective basal and 11.34 % of respective basal and 202.06 % of respective basal and 117.28 % of respective basal | Dopamine release, MEAN (T6 h-T6 h 30): 267.65 % of respective basal | Dopamine release, individual animals (T6 h-T6 h 30): 879.91 % of respective basal and 122.45 % of respective basal and 101.84 % of respective basal and 10.68 % of respective basal and 188.10 % of respective basal and 103.08 % of respective basal and 135.89 % of respective basal and 599.24 % of respective basal | Dopamine release, MEAN [1]: 100.22 % of respective basal | Dopamine release, MEAN [2]: 104.26 % of respective basal | Dopamine release, MEAN [3]: 98.66 % of respective basal | dopamine levels, increase (not statistically significant) (SON-117 0.1 mg/kg I.P., from 4.5 h to 7 h): 353% | dopamine levels, increase (not statistically significant) (SON-117 0.1 mg/kg I.P., from T1.5 h and 2.5 h): 287% | dopamine levels, increase (not statistically significant) (SON-117 0.3 mg/kg I.P., from 5.5 h to 7 h): 298% | dopamine levels, slight increase (not statistically significant) (SON-117 3 mg/kg IP, at 1.5 h): 169% | dopamine levels, slight increase, max. (not statistically significant) (SON-117 3 mg/kg IP, from 6 h to 7 h): 167% | release of dopamine, trend (SON-117 0.1 and 0.3 mg/kg, from 5.5 h): trend for an increased release | dopamine, difference to the citalopram group (two-way ANOVA) (SON-117 at the three doses tested, in function of time): no significant differences | DOPAMINE (% of respective basal) MEAN (T0-T30 min): 133.37 % of respective basal | DOPAMINE (% of respective basal) MEAN (T30-T1 h): 103.29 % of respective basal | DOPAMINE (% of respective basal) MEAN (T1 h 30-T2 h): 151.81 % of respective basal | DOPAMINE (% of respective basal) MEAN (T1 h-T1 h 30): 123.06 % of respective basal | DOPAMINE (% of respective basal) MEAN (T2 h 30-T3 h): 138.45 % of respective basal | DOPAMINE (% of respective basal) MEAN (T2 h-T2 h 30): 286.96 % of respective basal | DOPAMINE (% of respective basal) MEAN (T3 h 30-T4 h): 155.83 % of respective basal | DOPAMINE (% of respective basal) MEAN (T3 h-T3 h 30): 150.01 % of respective basal | DOPAMINE (% of respective basal) MEAN (T4 h 30-T5 h): 240.84 % of respective basal | DOPAMINE (% of respective basal) MEAN (T4 h-T4 h 30): 215.81 % of respective basal | DOPAMINE (% of respective basal) MEAN (T5 h 30-T6 h): 188.21 % of respective basal | DOPAMINE (% of respective basal) MEAN (T5 h-T5 h 30): 183.94 % of respective basal | DOPAMINE (% of respective basal) MEAN (T6 h 30-T7 h): 353.25 % of respective basal | DOPAMINE (% of respective basal) MEAN (T6 h-T6 h 30): 226.43 % of respective basal | DOPAMINE (% of respective basal) MEAN [1]: 105.18 % of respective basal | DOPAMINE (% of respective basal) MEAN [2]: 100.9 % of respective basal | DOPAMINE (% of respective basal) MEAN [3]: 91.46 % of respective basal
